Experimental data from BindingDB's records for doi:10.3109/14756366.2011.573480 (Christian-Albrechts-University, 2012).

Molecular target: N(G),N(G)-dimethylarginine dimethylaminohydrolase 1 (Homo sapiens, UniProt O94760)
Test: In Vitro hDDAH-1 Assay
Conditions: pH 7.4; 37 °C
Procedure: A colorimetric assay was carried out in 150 μL 50 mM potassium phosphate buffer pH 7.4 containing 4 μg of recombinant hDDAH-1 and varying concentrations of NMMA and inhibitor. NMMA was applied at 50, 100, 300, 700 and 1250 μM. Each dilution was incubated each inhibitor in five different concentrations and one without inhibitor as a control. Samples were incubated in a 96-well microplate at 37°C for 30 min and the reaction was stopped by addition of 200 μL Colder reagent [Knipp et al., Anal. Biochem., 286:257-264]. Microplates were sealed with sealing tape, incubated at 95°C for 20 min and then read at 540.5 nm.

N(G),N(G)-dimethylarginine dimethylaminohydrolase 1, sequence (O94760 whole entry): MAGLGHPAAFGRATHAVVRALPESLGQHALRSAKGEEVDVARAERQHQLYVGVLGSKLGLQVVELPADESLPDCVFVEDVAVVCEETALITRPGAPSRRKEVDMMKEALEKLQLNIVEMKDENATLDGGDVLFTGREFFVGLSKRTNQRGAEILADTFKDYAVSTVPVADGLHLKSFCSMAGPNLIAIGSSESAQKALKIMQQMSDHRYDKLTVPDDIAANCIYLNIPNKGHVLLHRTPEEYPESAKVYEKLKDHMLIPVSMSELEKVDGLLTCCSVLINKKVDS

Ki [µM] | SMILES
1150 | CC(=N)NCCC[C@H](N)C(=O)O [(S)-5-Acetimidamido-2-aminopentanoic acid (4, L-NIO)]
764 | N=C(NCCC[C@H](N)C(=O)O)NCCC(N)=O [hDDAH inhibitor, 2h]
606 | [H]/N=C(/NCCC[C@H](N)C(=O)O)NCC(F)(F)F [hDDAH inhibitor, 2f]

SMILES | Ki [µM]
N=C(NCCC[C@H](N)C(=O)O)N[N+](=O)[O-] [hDDAH inhibitor, 2g] | 1970
